For 14 compounds, EC50 results are on record in US9486435B2, “(Het)aryl-p-quinone derivatives for treatment of mitochondrial diseases” (Edison Pharmaceuticals, Inc., priority 2008, dated 2016).

Type in all cases: cell-based
The subject of experiment [1] is Human dermal fibroblasts from Friedreich's Ataxia patients. Put plainly: Rescue of BSO-stressed FRDA fibroblasts (Calcein AM viability). The conditions noted are these: FRDA fibroblasts GM04078, BSO stress, read-out: protection against FRDA, EC50. The procedure:
(§1) An initial screen was performed to identify compounds effective for the amelioration of redox disorders. Test samples, 4 reference compounds (Idebenone, decylubiquinone, Trolox and α-tocopherol acetate), and solvent controls were tested for their ability to rescue FRDA fibroblasts stressed by addition of L-buthionine-(S,R)-sulfoximine (BSO), as described in Jauslin et al., Hum. Mol. Genet. 11(24):3055 (2002), Jauslin et al., FASEB J. 17:1972-4 (2003), and International Patent Application WO 2004/003565. […] This specific BSO-mediated cell death can be prevented by administration of antioxidants or molecules involved in the antioxidant pathway, such as α-tocopherol, selenium, or small molecule glutathione peroxidase mimetics. However, antioxidants differ in their potency, i.e. the concentration at which they are able to rescue BSO-stressed FRDA fibroblasts.
MEM (a medium enriched in amino acids and vitamins, catalog no. 1-31F24-I) and Medium 199 (M199, catalog no. 1-21F22-I) with Earle's Balanced Salts, without phenol red, were purchased from Bioconcept. Fetal Calf Serum was obtained from PAA Laboratories. Basic fibroblast growth factor and epidermal growth factor were purchased from PeproTech. Penicillin-streptomycin-glutamine mix, L-buthionine (S,R)-sulfoximine, (+)-α-tocopherol acetate, decylubiquinone, and insulin from bovine pancreas were purchased from Sigma. Trolox (6-hydroxy-2,5,7,8-tetramethylchromane-2-carboxylic acid) was obtained from Fluka. Idebenone was obtained from Chemo Iberica. Calcein AM was purchased from Molecular Probes. Cell culture medium was made by combining 125 ml M 199 EBS, 50 ml Fetal Calf Serum, 100 U/ml penicillin, 100 μg/ml streptomycin, 2 mM glutamine, 10 μg/ml insulin, 10 ng/ml EGF, and 10 ng/ml bFGF; MEM EBS was added to make the volume up to 500 ml. A 10 mM BSO solution was prepared by dissolving 444 mg BSO in 200 ml of medium with subsequent filter-sterilization. During the course of the experiments, this solution was stored at +4° C. The cells were obtained from the Coriell Cell Repositories (Camden, N.J.; repository number GM04078) and grown in 10 cm tissue culture plates. Every third day, they were split at a 1:3 ratio.
The test samples were supplied in 1.5 ml glass vials. The compounds were diluted with DMSO, ethanol or PBS to result in a 5 mM stock solution. Once dissolved, they were stored at −20° C. Reference antioxidants (Idebenone, decylubiquinone, α-tocopherol acetate and trolox) were dissolved in DMSO.
(§2) Test samples were screened according to the following protocol: A culture with FRDA fibroblasts was started from a 1 ml vial with approximately 500,000 cells stored in liquid nitrogen. Cells were propagated in 10 cm cell culture dishes by splitting every third day in a ratio of 1:3 until nine plates were available. Once confluent, fibroblasts were harvested. For 54 micro titer plates (96 well-MTP) a total of 14.3 million cells (passage eight) were re-suspended in 480 ml medium, corresponding to 100 μl medium with 3,000 cells/well. The remaining cells were distributed in 10 cm cell culture plates (500,000 cells/plate) for propagation. The plates were incubated overnight at 37° C. in a atmosphere with 95% humidity and 5% CO2 to allow attachment of the cells to the culture plate.
(§3) MTP medium (243 μl) was added to a well of the microtiter plate. The test compounds were unfrozen, and 7.5 μl of a 5 mM stock solution was dissolved in the well containing 243 μl medium, resulting in a 150 μM master solution. Serial dilutions from the master solution were made. The period between the single dilution steps was kept as short as possible (generally less than 1 second).
Plates were kept overnight in the cell culture incubator. The next day, 10 μl of a 10 mM BSO solution were added to the wells, resulting in a 1 mM final BSO concentration. Forty-eight hours later, three plates were examined under a phase-contrast microscope to verify that the cells in the 0% control (wells E1-H1) were clearly dead. […]

Experiment [2] deals with human dermal fibroblasts from Huntington's patients. Put plainly: Rescue of BSO-stressed fibroblasts from Huntington's patients. The following applies: Fibroblast, Huntington's fibroblasts GM 04281, BSO stress, read-out: protection against Huntington's, EC50. As to the method:
as §1, §2, §3
(§4) Plates were kept overnight in the cell culture incubator. The next day, 10 μl of a 10 mM BSO solution were added to the wells, resulting in a 1 mM final BSO concentration. Forty-eight hours later, three plates were examined under a phase-contrast microscope to verify that the cells in the 0% control (wells E1-H1) were clearly dead. The medium from all plates was discarded, and the remaining liquid was removed by gently tapping the plate inversed onto a paper towel.
(§5) 100 μl of PBS containing 1.2 μM Calcein AM were then added to each well. The plates were incubated for 50-70 minutes at room temperature. After that time the PBS was discarded, the plate gently tapped on a paper towel and fluorescence (excitation/emission wavelengths of 485 nm and 525 nm, respectively) was read on a Gemini fluorescence reader. Data was imported into Microsoft Excel (EXCEL is a registered trademark of Microsoft Corporation for a spreadsheet program) and used to calculate the EC50 concentration for each compound.
Compounds of the invention were tested using the screen as described in Example A, but substituting FRDA cells with Huntington's cells obtained from the Coriell Cell Repositories (Camden, N.J.; repository number GM 04281). The compounds were tested for their ability to rescue human dermal fibroblasts from Huntington's patients from oxidative stress.

The subject of experiment [3] is human dermal fibroblasts from LHON patients. The experiment in a line: Rescue of BSO-stressed fibroblasts from LHON patients. The conditions noted are these: Fibroblast, LHON fibroblasts GM03858, BSO stress, read-out: protection against LHON, EC50. The procedure:
as §1, §2, §3, §4, §5
Compounds of the invention were screened as described in Example A, but substituting FRDA cells with Leber's Hereditary Optic Neuropathy (LHON) cells obtained from the Coriell Cell Repositories (Camden, N.J.; repository number GM03858). The compounds were tested for their ability to rescue human dermal fibroblasts from LHON patients from oxidative stress.

The test system of experiment [4] is human dermal fibroblasts from Parkinson's disease patients. The experiment in a line: Rescue of BSO-stressed fibroblasts from Parkinson's disease patients. The conditions noted are these: Fibroblast, PD fibroblasts AG20439, BSO stress, read-out: protection against PD, EC50. As to the method: as §1, §2, §3, §4, §5
Compounds of the invention were screened as described in Example A, but substituting FRDA cells with Parkinson's Disease (PD) cells obtained from the Coriell Cell Repositories (Camden, N.J.; repository number AG20439). The compounds were tested for their ability to rescue human dermal fibroblasts from Parkinson's disease patients from oxidative stress.

The term EC50 denotes the concentration that produces a half-maximal response. On to `CC1=C(C)C(=O)C(c2ccc(F)cc2)=C(CCC(C)(C)O)C1=O` [Example 9, 2-(4-Fluorophenyl)-3-(3-hydroxy-3-methylbutyl)-5,6-dimethylcyclohexa-2,5-diene-1,4-dione], for which the EC50 in experiment [1], in experiment [2] and in experiment [3] was under 200 nM in each case.

Consider `COc1cc(F)ccc1C1=C(CCC(C)(C)O)C(=O)C(C)=C(C)C1=O` [2-(4-fluoro-2-methoxyphenyl)-3-(3-hydroxy-3-methylbutyl)-5,6-dimethylcyclohexa-2,5-diene-1,4-dione], for which the EC50 in experiment [2] is under 200 nM.

As for `COc1ccc(C2=C(CCC(C)(C)O)C(=O)C(C)=C(C)C2=O)cc1` [Example 12, 2-(3-Hydroxy-3-methylbutyl)-3-(4-methoxyphenyl)-5,6-dimethylcyclohexa-2,5-diene-1,4-dione], the half-maximal effective concentration (EC50) in experiment [2] and in experiment [3] was under 200 nM in each case.

For `CC1=C(C)C(=O)C(C(O)Cc2ccccc2)=C(CCC(C)(C)O)C1=O` (stereo not shown) [Example 26, 2-(1-Hydroxy-2-phenylethyl)-3-(3-hydroxy-3-methylbutyl)-5,6-dimethylcyclohexa-2,5-diene-1,4-dione], the EC50 in experiment [1], in experiment [2] and in experiment [4] was under 200 nM each time.

Consider `COc1cccc(C2=C(CCC(C)(C)O)C(=O)C(C)=C(C)C2=O)c1` [2-(3-hydroxy-3-methylbutyl)-3-(3-methoxyphenyl)-5,6-dimethyl-cyclohexa-2,5-diene-1,4-dione], for which the 50% effective concentration (EC50) in experiment [2] is under 200 nM.

With `CC1=C(C)C(=O)C(CCC(C)(C)O)=C(CCc2ccccc2)C1=O` [Example 25, 2-(3-Hydroxy-3-methylbutyl)-5,6-dimethyl-3-phenethylcyclohexa-2,5-diene-1,4-dione], the concentration giving a half-maximal response (EC50) in experiment [2], in experiment [3] and in experiment [4] was under 200 nM throughout.

For the compound `CC1=C(C)C(=O)C(Cc2ccccc2)=C(CCC(C)(C)O)C1=O` [Example 23, 2-Benzyl-3-(3-hydroxy-3-methylbutyl)-5,6-dimethylcyclohexa-2,5-diene-1,4-dione], the EC50 in experiment [1], in experiment [2] and in experiment [3] was under 200 nM each time.

As for `CC1=C(C)C(=O)C(c2ccc3c(c2)OCO3)=C(CCC(C)(C)O)C1=O` [2-(benzo[d][1,3]dioxol-5-yl)-3-(3-hydroxy-3-methylbutyl)-5,6-dimethylcyclohexa-2,5-diene-1,4-dione], the EC50 in experiment [2] was under 200 nM.

On to `CC1=C(C)C(=O)C(c2ccccc2F)=C(CCC(C)(C)O)C1=O` [Example 22, 2-(2-Fluorophenyl)-3-(3-hydroxy-3-methylbutyl)-5,6-dimethylcyclohexa-2,5-diene-1,4-dione], for which the concentration for a half-maximal effect (EC50) in experiment [2] is under 200 nM.

As to `CC1=C(C)C(=O)C(c2ccc(F)c(F)c2)=C(CCC(C)(C)O)C1=O` [Example 21, 2-(3,4-Difluorophenyl)-3-(3-hydroxy-3-methylbutyl)-5,6-dimethylcyclohexa-2,5-diene-1,4-dione], the EC50 in experiment [1], in experiment [2] and in experiment [3] was under 200 nM throughout.

Take `CC1=C(C)C(=O)C(c2ccccc2)=C(CCC(C)(C)O)C1=O` [Example 10, 2-(3-Hydroxy-3-methylbutyl)-5,6-dimethyl-3-phenylcyclohexa-2,5-diene-1,4-dione]: the EC50 in experiment [4] was under 200 nM.

Consider `CC1=C(C)C(=O)C(c2ccc(C#N)cc2)=C(CCC(C)(C)O)C1=O` [4-(2-(3-hydroxy-3-methylbutyl)-4,5-dimethyl-3,6-dioxocyclohexa-1,4-dienyl)benzonitrile], for which, in experiment [2], the half-maximal effective concentration (EC50) was under 200 nM.

For the compound `CC1=C(C)C(=O)C(c2cc3ccccc3o2)=C(CCC(C)(C)O)C1=O` [Example 14, 2-(Benzofuran-2-yl)-3-(3-hydroxy-3-methylbutyl)-5,6-dimethylcyclohexa-2,5-diene-1,4-dione], the half-maximal effective concentration (EC50) in experiment [3] and in experiment [4] was under 200 nM each time.

On to `CC1=C(CCC(C)(C)O)C(=O)C(c2ccc(C#N)cc2)=C(C)C1=O` [Example 3, 4-(5-(3-Hydroxy-3-methylbutyl)-2,4-dimethyl-3,6-dioxocyclohexa-1,4-dienyl)benzonitrile], for which the EC50 in experiment [1], in experiment [3] and in experiment [4] was under 200 nM in each case.
